Read-outs that look alike come from different tables or passages of the source.
Tested on: adult worms of S. japonicum (Chinese strain)
Test: microbe, parasite or virus in culture
Conditions: for mortality at 100 µM: Schistosoma japonicum; for Mortality (%) 72 h: 100 μM, adult worms in vitro
Method: S. japonicum cercariae (Chinese strain) were acquired from infected Oncomelania hupensis snails (Wuxi Insect Vector Biology Co., Ltd., China) ([28]). ICR mice (6–8 weeks, 22–25 g; Hunan SJA Laboratory Animal Co., Ltd., China) were percutaneously infected via abdominal exposure to 60 ± 5 cercariae. Adult schistosomes were perfused from the hepatic portal system at 35 dpi using a modified Duvall and DeWitt method ([29]). Animals were housed under controlled conditions (22°C ± 1°C, 12 h light/dark cycle) with ad libitum access to feed and water.
Adult S. japonicum worms isolated from ICR mice were maintained in sterile culture medium (2.0 mL) comprising 77% RPMI 1640 (Lanzhou Bailing Biotech Co., Ltd.; pH 7.5, HEPES-buffered), 20% heat-inactivated fetal bovine serum (Lanzhou Minhai Bio-Engineering Co., Ltd.), and 3% penicillin-streptomycin (100×; 10,000 U/mL penicillin, 10,000 μg/mL streptomycin; New Cell & Molecular Biotech Co., Ltd., China). Incubation was performed at 37°C under 5% CO2. Test compounds were dissolved in DMSO as 0.1 M stock solutions; 2.0 μL aliquots were added to worm-containing media (final concentration: 100 μM in 0.1% DMSO). Negative controls received equivalent volumes of vehicle (0.1% DMSO in RPMI 1640). Parasite viability (motor activity, tegumental integrity, survival) was assessed every 12 h for 72 h using an Olympus CKX53 inverted microscope (n ≥ 3 independent replicates).

[1] = 24 h, read-out: Mortality (%) 24 h, 100 μM, 24 h, adult worms in vitro
[2] = 36 h, read-out: Mortality (%) 36 h, 100 μM, 36 h, adult worms in vitro
[3] = 48 h, read-out: Mortality (%) 48 h, 100 μM, 48 h, adult worms in vitro
[4] = 72 h, read-out: Mortality (%) 72 h, 100 μM, 72 h, adult worms in vitro

Row | SMILES | mortality at 100 µM [1] [%] | mortality at 100 µM [2] [%] | mortality at 100 µM [3] [%] | mortality at 100 µM [4] [%] | Mortality (%) 72 h (72 h) [%]
1 | CN(NC(=O)c1ccc(Br)cc1)c1ccc(F)cc1 [Compound 28] | 0 | 0 | 0 | 0 | –
2 | CN(NC(=O)c1ccc(Cl)cc1)c1ccc(Cl)c(Cl)c1 [Compound 17] | 0 | 5 | 25 | 70 | –
3 | CN(NC(=O)c1ccc(Br)cc1)c1cccc(C(F)(F)F)c1 [Compound 36] | 0 | 0 | 10 | 80 | –
4 | CN(NC(=O)c1ccc(Br)cc1)c1ccc(C#N)cc1 [Compound 32] | 0 | 0 | 0 | 0 | –
5 | CN(NC(=O)c1ccc(C(F)(F)F)cc1)c1ccc(Cl)c(Cl)c1 [Compound 19] | 0 | 0 | 35 | 80 | –
6 | Cc1ccc(N(C)NC(=O)c2ccc(Br)cc2)cc1 [Compound 26] | 0 | 0 | 10 | 10 | –
7 | CN(NC(=O)c1ccc(Cl)c(Cl)c1)c1ccc(F)cc1 [Compound 3] | 0 | 0 | 45 | > 80 | 85
8 | CN(NC(=O)c1ccc(Cl)c(Cl)c1)c1ccc(Cl)cc1 [Compound 4] | 0 | 0 | 0 | 10 | –
9 | CN(NC(=O)c1ccc(Cl)c(Cl)c1)c1cccc(Cl)c1 [Compound 8] | 0 | 0 | 40 | > 80 | 100
10 | CN(NC(=O)c1ccc(F)c(F)c1)c1ccc(Cl)c(Cl)c1 [Compound 24] | 0 | 5 | 45 | > 90 | 90
11 | CN(NC(=O)c1ccc(Br)cc1)c1ccccc1Cl [Compound 39] | 0 | 0 | 10 | 20 | –
12 | Cc1cccc(N(C)NC(=O)c2ccc(Cl)c(Cl)c2)c1 [Compound 7] | 0 | 0 | 0 | 0 | –
13 | CN(NC(=O)c1ccc(F)c(C(F)(F)F)c1)c1ccc(Cl)c(Cl)c1 [Compound 25] | 0 | 0 | 30 | 80 | –
14 | CN(NC(=O)c1ccc(Cl)c(Cl)c1)c1ccccc1Cl [Compound 12] | 0 | 0 | 0 | 0 | –
15 | CN(NC(=O)c1ccc(Cl)c(Cl)c1)c1ccc(C#N)cc1 [Compound 6] | 0 | 0 | 0 | 20 | –
16 | CN(NC(=O)c1ccc(Br)cc1)c1ccc(Br)cc1 [Compound 30] | 0 | 10 | 65 | 100 | –
17 | CN(NC(=O)c1ccc(Cl)c(Cl)c1)c1cccc(Br)c1 [Compound 9] | 0 | 0 | 15 | > 80 | 85
18 | COc1ccc(C(=O)NN(C)c2ccc(Cl)c(Cl)c2)cc1 [Compound 16] | 0 | 0 | 65 | > 90 | 100
19 | Cc1ccc(N(C)NC(=O)c2ccc(Cl)c(Cl)c2)cc1 [Compound 1] | 0 | 5 | 60 | > 80 | 100

Row | SMILES | mortality at 100 µM [1] [%] | mortality at 100 µM [2] [%] | mortality at 100 µM [3] [%] | mortality at 100 µM [4] [%] | Mortality (%) 72 h (72 h) [%]
20 | CN(NC(=O)c1cccc(Cl)c1)c1ccc(Cl)c(Cl)c1 [Compound 23] | 0 | 5 | 40 | > 90 | 95
21 | CN(NC(=O)c1ccc(Cl)c(Cl)c1)c1ccc(Cl)c(C(F)(F)F)c1 [Compound 14] | 15 | 25 | 55 | > 80 | 95
22 | Cc1cccc(N(C)NC(=O)c2ccc(Br)cc2)c1 [Compound 33] | 0 | 15 | 40 | 70 | –
23 | CN(NC(=O)c1ccc(Cl)c(Cl)c1)c1ccc(Cl)c(Cl)c1 [Compound 13] | 0 | 15 | 50 | > 80 | 100
24 | COc1ccc(N(C)NC(=O)c2ccc(Cl)c(Cl)c2)cc1 [Compound 2] | 0 | 0 | 0 | 0 | –
25 | CN(NC(=O)c1ccc(Br)cc1)c1ccccc1F [Compound 38] | 0 | 0 | 10 | 10 | –
26 | Cc1ccc(C(=O)NN(C)c2ccc(Cl)c(Cl)c2)cc1 [Compound 15] | 0 | 20 | 35 | 65 | –
27 | CN(NC(=O)c1ccc(Br)cc1)c1cccc(Br)c1 [Compound 35] | 0 | 0 | 30 | 60 | –
28 | CN(NC(=O)c1ccc(C#N)cc1)c1ccc(Cl)c(Cl)c1 [Compound 20] | 0 | 0 | 60 | > 90 | 100
29 | COc1ccc(N(C)NC(=O)c2ccc(Br)cc2)cc1 [Compound 27] | 0 | 0 | 0 | 0 | –
30 | CN(NC(=O)c1ccc(Cl)c(Cl)c1)c1ccccc1F [Compound 11] | 0 | 0 | 0 | 0 | –
31 | CN(NC(=O)c1ccc(Br)cc1)c1ccc(Cl)cc1 [Compound 29] | 0 | 0 | 0 | 35 | –
32 | CN(NC(=O)c1ccc(Br)cc1)c1cc(Cl)cc(Cl)c1 [Compound 40] | 0 | 20 | 70 | 100 | –
33 | CN(NC(=O)c1ccc(Br)cc1)c1cccc(Cl)c1 [Compound 34] | 0 | 0 | 0 | 90 | –
34 | CN(NC(=O)c1ccc(Br)cc1)c1ccc(C(F)(F)F)cc1 [Compound 31] | 0 | 10 | 55 | 75 | –
35 | Cc1ccccc1N(C)NC(=O)c1ccc(Br)cc1 [Compound 37] | 0 | 0 | 0 | 0 | –
36 | Cc1cccc(C(=O)NN(C)c2ccc(Cl)c(Cl)c2)c1 [Compound 22] | 0 | 0 | 0 | 70 | –
37 | CN(NC(=O)c1ccc([N+](=O)[O-])cc1)c1ccc(Cl)c(Cl)c1 [Compound 21] | 0 | 0 | 30 | 65 | –
